According to article PMC3466778 (Biochemistry, 2012):

Target: T1, KcsA (Streptomyces lividans, UniProt P0A334)
T1 sequence (P0A334 1-160): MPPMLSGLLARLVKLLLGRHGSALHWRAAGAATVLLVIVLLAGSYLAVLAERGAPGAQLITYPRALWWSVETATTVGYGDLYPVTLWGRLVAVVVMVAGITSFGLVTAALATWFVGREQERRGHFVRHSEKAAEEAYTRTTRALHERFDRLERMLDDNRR
Experiment: fluorescence titration
Type: binding

Kd: 470 ± 100 nM
Compound: CN(C)c1cccc2c(S(=O)(=O)NCCCCCCCCCCC(=O)O)cccc12 [Dauda]
